Where a name gives a salt, the structure may show the parent alone.
Target: T1, human pancreatic lipase (hPL) (Homo sapiens, UniProt P16233)
T1 construct: gene PNLIP
T1 sequence (P16233 17-465): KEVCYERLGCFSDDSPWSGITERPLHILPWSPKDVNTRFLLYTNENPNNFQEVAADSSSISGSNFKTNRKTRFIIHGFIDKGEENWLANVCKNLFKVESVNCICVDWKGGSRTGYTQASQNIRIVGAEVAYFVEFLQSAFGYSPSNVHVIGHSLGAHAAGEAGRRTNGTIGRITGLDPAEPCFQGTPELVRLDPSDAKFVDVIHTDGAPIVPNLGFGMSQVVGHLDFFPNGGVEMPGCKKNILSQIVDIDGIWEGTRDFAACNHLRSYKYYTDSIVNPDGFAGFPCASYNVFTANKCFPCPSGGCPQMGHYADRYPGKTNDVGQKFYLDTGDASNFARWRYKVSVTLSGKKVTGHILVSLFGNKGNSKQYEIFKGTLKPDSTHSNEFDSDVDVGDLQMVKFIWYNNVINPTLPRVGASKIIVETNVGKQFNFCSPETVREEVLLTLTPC
Conditions: 10 µM; inhibitor
Method: First, we evaluated the inhibitory effect of 94 natural products derived from herbs and 94 drugs on hPL. In our high-throughput screening system, 1 ug/mL hPL was used, and the final concentration of the 94 natural products derived from herbs and 94 drugs used was 10 μM. Other conditions were the same as in the selectivity experiments. […] RLE was incubated with hPL and various enzymes, such as hCES1A, hCES2A, CA, AchE, BchE, 5-HKE, lysozyme, trypsin, thrombin, α-CT, FAP, PREP, pepsin, α-amylase, plasmin, notum and hSA, in a 100 µL incubation mixture consisting of Tris-HCl (pH = 7.4, 25 mM), NaCl (150 mM), CaCl2 (1 mM) and porcine bile salt (0.1 mg/mL) at a concentration of 1.5 µg/mL. The reaction was initiated by adding RLE to the preincubated enzyme mixture at 37 °C, and metabolite formation was determined by measuring the fluorescence intensity of resorufin at 590 nm. In addition, several amino acids (IIe, His, Trp, Val, Leu, Tyr, Ala, Thr, Pro, Asp, Lys, Met, Cys, Ser, Phe, Gly, Glu and Gln), ions (Ni^2+, Ca^2+, Na^+, K^+, Cu^2+, Zn^2+, Mg^2+, NH4^+, Cu^+, Fe^2+ and CN^-) and GSH were measured. The concentration of these interfering factors was 5 μM. […] In this case, a visual high-throughput assay was established to screen hPL inhibitors, using RLE as a fluorogenic substrate in a 96-well microplate.

Compound | % of control remaining
CC(C)(O/N=C(\C(=O)N[C@@H]1C(=O)N2C(C(=O)[O-])=C(C[n+]3ccccc3)CS[C@H]12)c1csc(N)n1)C(=O)O [CeftazidiMe] | 118.41%
CC1COc2c(N3CCN(C)CC3)c(F)cc3c(=O)c(C(=O)O)cn1c23 (stereo not shown) [Ofloxacin] | 87.95%
Cc1ccc(-c2cc(C(F)(F)F)nn2-c2ccc(S(N)(=O)=O)cc2)cc1 [Celecoxib] | 90.67%
COc1ccc(-c2cc(=O)c3c(O)c(OC)c(O)c(OC)c3o2)cc1 [Lysionotin] | 84.30%
COCCc1ccc(OCC(O)CNC(C)C)cc1 (stereo not shown) [Metoprolol tartrate] | 135.23%
COC(=O)C1=C(C)NC(C)=C(C(=O)OCC(C)C)C1c1ccccc1[N+](=O)[O-] (stereo not shown) [Nisoldipine] | 75.08%
C[C@@H]1CC[C@@]2(NC1)O[C@H]1C[C@H]3[C@@H]4CC=C5C[C@@H](O[C@@H]6O[C@H](CO)[C@@H](O[C@@H]7O[C@@H](C)[C@H](O)[C@@H](O)[C@H]7O)[C@H](O)[C@H]6O)CC[C@]5(C)[C@H]4CC[C@]3(C)[C@H]1[C@@H]2C [Khasianine] | 102.50%
NCCc1ccc(O)c(O)c1 [3-Hydroxytyramine hydrochloride] | 86.11%
O=C(O)c1cc(-c2ccc(F)cc2F)ccc1O [Diflunisal] | 118.03%
CC[C@H](C)C(=O)O[C@H]1C[C@@H](C)C=C2C=C[C@H](C)[C@H](CC[C@@H]3C[C@@H](O)CC(=O)O3)[C@H]21 [Lovastatin] | 80.96%
COc1cc(-c2coc3cc4c(c(OC)c3c2=O)OCO4)cc(OC)c1OC [Irisflorentin] | 66.38%
CCN(CC)CCNC(=O)c1cc(S(C)(=O)=O)ccc1OC [Tiapride] | 108.20%
CCOC(=O)C1=C(C)NC(C)=C(C(=O)OC)C1c1cccc([N+](=O)[O-])c1 (stereo not shown) [Nitrendipine] | 92.86%
CN(C)C(=O)Oc1cc(OC(=O)N(C)C)cc(C(O)CNC(C)(C)C)c1 (stereo not shown) [Bambuterol hydrochloride] | 93.23%
COc1ccc(-c2coc3cc(O)ccc3c2=O)cc1 [Formononetin] | 104.25%
CC(=O)O[C@]1(C(C)=O)CC[C@H]2[C@@H]3C[C@H](C)C4=CC(=O)CC[C@]4(C)[C@H]3CC[C@@]21C [Medroxyprogesterone Acetate] | 68.77%
O=c1cc(-c2ccccc2)oc2cc(O)c(O)c(O)c12 [Baicalein] | 48.80%
Nc1ccccc1NC(=O)c1ccc(CNC(=O)OCc2cccnc2)cc1 [Entinostat] | 102.02%
Cc1cc(NS(=O)(=O)c2ccc(N)cc2)no1 [Sulfamethoxazole] | 98.83%
CC(C)CCC[C@@H](C)[C@H]1CC[C@H]2[C@@H]3CCC4=CC(=O)CC[C@]4(C)[C@H]3CC[C@]12C [4-Cholesten-3-one] | 77.59%
Cc1c(O)c(C)c2c(c1O)C(=O)[C@H](Cc1ccc3c(c1)OCO3)CO2 [Methylophiopogonanone A] | 80.44%
COc1ccc(-c2coc3cc(O)cc(O)c3c2=O)cc1 [5,7-Dihydrox-4'-methoxyisoflavone] | 100.90%
COC1=C[C@@H]2[C@@H]3Cc4ccc(OC)c(O)c4[C@]2(CCN3C)CC1=O [Sinomenine] | 101.42%
COc1cc2c(=O)c(-c3ccc(O)cc3)coc2cc1O[C@@H]1O[C@H](CO)[C@@H](O)[C@H](O)[C@H]1O [Glycitin] | 99.85%
NS(=O)(=O)c1cc(C(=O)O)c(NCc2ccco2)cc1Cl [Furosemide] | 100.00%

Compound | % of control remaining
COc1cc(O)c2c(c1C(=O)/C=C/c1ccc(O)cc1)OC(C)(C)C(O)C2 (stereo not shown) [Xanthohumol L] | 100.78%
COc1cc(O)c(CC=C(C)C)c(O)c1C(=O)/C=C/c1ccc(O)cc1 [Xanthohumol] | 81.19%
O=C(O)/C=C/c1ccc(O)c(O)c1 [Caffeic acid] | 71.45%
CN[C@H](CC(C)C)C(=O)N[C@H]1C(=O)N[C@@H](CC(N)=O)C(=O)N[C@H]2C(=O)N[C@H]3C(=O)N[C@H](C(=O)N[C@H](C(=O)O)c4cc(O)cc(O)c4-c4cc3ccc4O)[C@H](O)c3ccc(c(Cl)c3)Oc3cc2cc(c3O[C@@H]2O[C@H](CO)[C@@H](O)[C@H](O)[C@H]2O[C@H]2C[C@](C)(N)[C@H](O)[C@H](C)O2)Oc2ccc(cc2Cl)[C@H]1O [Vancomycin] | 96.04%
COc1c(/C=C/C(=O)c2ccc(O)c(CC=C(C)C)c2)ccc(O)c1O [Licochalcone D] | 80.45%
O=C1c2c(O)cc(O)cc2O[C@H](c2ccc(O)cc2)[C@H]1O [Dihydrokaempferol] | 109.31%
COc1ccc2cc([C@H](C)C(=O)O)ccc2c1 [Naproxen] | 116.02%
O=c1c(O[C@@H]2O[C@H](CO)[C@@H](O)[C@H](O)[C@H]2O)c(-c2ccc(O)cc2)oc2cc(O)cc(O)c12 [Astragalin] | 107.88%
COc1cc([C@@H]2c3cc4c(cc3[C@@H](O[C@@H]3O[C@@H]5CO[C@@H](C)O[C@H]5[C@H](O)[C@H]3O)[C@H]3COC(=O)[C@H]23)OCO4)cc(OC)c1O [Etoposide] | 65.05%
CC(C)c1nc(CN(C)C(=O)N[C@H](C(=O)N[C@@H](Cc2ccccc2)C[C@H](O)[C@H](Cc2ccccc2)NC(=O)OCc2cncs2)C(C)C)cs1 [Ritonavir] | 97.04%
COC(=O)N[C@H](C(=O)N[C@@H](Cc1ccccc1)[C@@H](O)CN(Cc1ccc(-c2ccccn2)cc1)NC(=O)[C@@H](NC(=O)OC)C(C)(C)C)C(C)(C)C [Atazanavir] | 79.92%
CCOC(=O)N1CCC(=C2c3ccc(Cl)cc3CCc3cccnc32)CC1 [Loratadine] | 96.14%
CC1=C(O)C(=O)C=C2C1=CC=C1[C@@]2(C)CC[C@@]2(C)[C@@H]3C[C@](C)(C(=O)O)CC[C@]3(C)CC[C@]12C [Celastrol] | 84.16%
COc1cc(O)c2c(=O)cc(-c3ccc(OC)c(-c4c(O)cc(O)c5c(=O)cc(-c6ccc(O)cc6)oc45)c3)oc2c1 [Ginkgetin] | 39.42%
COc1ccc(-c2cc(=O)c3c(OC)c(OC)c(OC)c(OC)c3o2)cc1OC [Nobiletin] | 80.44%
C=C1CC[C@@H]2[C@](C)(CO)[C@H](O)CC[C@@]2(C)[C@H]1C/C=C1\C=COC1=O [Dehydroandrographolide] | 89.55%
NC(=O)N1c2ccccc2C[C@H](O)c2ccccc21 [Eslicarbazepine] | 103.44%
COC(=O)[C@@]1(C)CC[C@]2(C(=O)O)CC[C@]3(C)C(=CC[C@@H]4[C@@]5(C)C[C@H](O)[C@H](O)[C@@](C)(CO)[C@@H]5CC[C@]43C)[C@@H]2C1 [phytolaccagenin] | 85.42%
O=C(Cc1ccccc1F)C1CC1 [Cyclopropyl 2-fluorobenzyl ketone] | 117.10%
CCC1=C(C)CN(C(=O)NCCc2ccc(S(=O)(=O)NC(=O)N[C@H]3CC[C@H](C)CC3)cc2)C1=O [Glimepiride] | 90.05%
CC(C)Cc1ccc(C(C)C(=O)O)cc1 (stereo not shown) [Ibuprofen] | 103.68%
CCOC(=O)C1=C(COCCN)NC(C)=C(C(=O)OC)C1c1ccccc1Cl (stereo not shown) [Amlodipine] | 85.85%
CN1CCN(C2=Nc3cc(Cl)ccc3Nc3ccccc32)CC1 [Clozapine] | 97.86%
COC(=O)/C=C/c1ccc(O)c(O)c1 [Methyl caffeate] | 72.74%
